Source: paper PMC3946900 (Pharmaceutical research, 2013)
Where two headings read alike, the source gives them in different places.

How the values were obtained:
P-gp (mdr1) = conditions: cited from earlier work
[1] = biological target: P-glycoprotein (P-gp, ABCB1; MDR1) (Homo sapiens, UniProt P08183); conditions: MDCK-MDR1 cells with and without CsA
P-gp = test: Compartmental models of apical efflux fit to permeability data
[2] = 5C model, asa = 1, lipid content = 10%

P-glycoprotein (P-gp, ABCB1; MDR1), sequence (P08183 whole entry): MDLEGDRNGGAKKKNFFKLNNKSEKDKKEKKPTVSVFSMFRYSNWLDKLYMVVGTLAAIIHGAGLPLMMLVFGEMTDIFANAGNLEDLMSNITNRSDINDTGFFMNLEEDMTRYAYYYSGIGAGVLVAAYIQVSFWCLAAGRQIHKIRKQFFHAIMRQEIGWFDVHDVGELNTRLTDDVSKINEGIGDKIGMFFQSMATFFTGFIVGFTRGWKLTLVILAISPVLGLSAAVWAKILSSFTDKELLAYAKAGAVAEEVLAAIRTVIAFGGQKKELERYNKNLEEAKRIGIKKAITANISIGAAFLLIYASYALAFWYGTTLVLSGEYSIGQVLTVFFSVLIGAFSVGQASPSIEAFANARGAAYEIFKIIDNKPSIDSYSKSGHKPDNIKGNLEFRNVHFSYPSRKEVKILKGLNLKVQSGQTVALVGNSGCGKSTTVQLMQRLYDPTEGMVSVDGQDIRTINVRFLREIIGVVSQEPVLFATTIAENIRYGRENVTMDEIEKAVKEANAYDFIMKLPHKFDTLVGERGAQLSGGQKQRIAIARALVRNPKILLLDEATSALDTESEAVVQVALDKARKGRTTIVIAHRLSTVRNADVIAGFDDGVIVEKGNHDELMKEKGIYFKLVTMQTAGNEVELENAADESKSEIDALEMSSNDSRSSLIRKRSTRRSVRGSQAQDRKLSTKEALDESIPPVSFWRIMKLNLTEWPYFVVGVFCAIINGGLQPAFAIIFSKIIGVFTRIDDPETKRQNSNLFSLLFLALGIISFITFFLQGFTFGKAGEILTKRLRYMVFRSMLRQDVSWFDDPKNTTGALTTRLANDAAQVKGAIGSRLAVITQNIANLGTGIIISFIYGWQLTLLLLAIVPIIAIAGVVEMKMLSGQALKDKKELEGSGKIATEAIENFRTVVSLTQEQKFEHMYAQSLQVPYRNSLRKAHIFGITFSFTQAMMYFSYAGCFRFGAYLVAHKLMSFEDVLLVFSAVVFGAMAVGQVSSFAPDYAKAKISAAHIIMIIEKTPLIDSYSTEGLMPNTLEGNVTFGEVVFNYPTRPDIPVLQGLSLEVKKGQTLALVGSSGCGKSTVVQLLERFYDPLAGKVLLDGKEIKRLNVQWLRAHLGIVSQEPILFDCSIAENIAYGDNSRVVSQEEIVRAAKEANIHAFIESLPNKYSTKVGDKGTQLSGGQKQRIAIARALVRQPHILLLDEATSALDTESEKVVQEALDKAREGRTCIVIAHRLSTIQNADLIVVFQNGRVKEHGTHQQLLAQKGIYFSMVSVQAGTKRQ

Structure (SMILES)	Brain Conc. Ratio mdr1(−/−)/mdr1(+/+) (P-gp (mdr1); mice, brain)	Liver Conc. Ratio mdr1(−/−)/mdr1(+/+) (P-gp (mdr1); mice, liver)	also measured
Cc1nnc2n1-c1sc(CCC(=O)N3CCOCC3)cc1C(c1ccccc1Cl)=NC2 [Apafant]	73.6	4.5	–
CN(C(=O)C(c1ccccc1)c1ccccc1)[C@H](CN1CC[C@H](O)C1)c1ccccc1 [Asimadoline]	9.1	1.1	–
CN(C)C(=O)C(CCN1CCC(O)(c2ccc(Cl)cc2)CC1)(c1ccccc1)c1ccccc1 [Loperamide]	–	–	permeability (qualitative) [1]: high permeability
Nc1cc(N2CCCCC2)nc(N)[n+]1[O-] [Minoxidil]	–	–	CLae (active apical efflux clearance) (P-gp): 0.021 µL/min
Cc1c(O)cccc1C(=O)N[C@@H](CSc1ccccc1)[C@H](O)CN1C[C@H]2CCCC[C@H]2C[C@H]1C(=O)NC(C)(C)C [Nelfinavir]	16.1	3.0	–
Cc1nccn1CC1CCc2c(c3ccccc3n2C)C1=O (stereo not shown) [Ondansetron]	4.0	0.9	–
O=C(O)C[C@H](O)C[C@H](O)/C=C/c1c(C2CC2)nc2ccccc2c1-c1ccc(F)cc1 [Pitavastatin]	1.3	0.88	CLae (active apical efflux clearance) (P-gp; [2]): 0.030 µL/min; CLi (diffusion clearance into an explicit membrane compartment) (P-gp; [2]): 3.5 µL/min
C/C=C/C[C@@H](C)C(=O)[C@H]1C(=O)N[C@@H](C(C)C)C(=O)N(C)CC(=O)N(C)[C@@H](CC(C)C)C(=O)N[C@@H](C(C)C)C(=O)N(C)[C@@H](CC(C)C)C(=O)N[C@@H](C)C(=O)N[C@H](C)C(=O)N(C)[C@@H](CC(C)C)C(=O)N(C)[C@@H](CC(C)C)C(=O)N(C)[C@@H](C(C)C)C(=O)N1C [SDZ PSC 833]	2.1	0.9	–
CO[C@H]1C[C@H](O[C@@H]2/C(C)=C/C[C@@H]3C[C@@H](C[C@]4(CC[C@H](C)[C@@H](C5CCCCC5)O4)O3)OC(=O)[C@@H]3C=C(C)/C(=N/O)[C@H]4OC/C(=C\C=C\[C@@H]2C)[C@]43O)O[C@@H](C)[C@@H]1O [Selamectin]	–	–	Brain Conc. Ratio mdr1(−/−)/mdr1(+/+) (P-gp (mdr1); mouse, in vivo): 4.9; Liver Conc. Ratio mdr1(−/−)/mdr1(+/+) (P-gp (mdr1); mouse, in vivo): 0.5
C=CC[C@@H]1/C=C(\C)C[C@H](C)C[C@H](OC)[C@H]2O[C@@](O)(C(=O)C(=O)N3CCCC[C@H]3C(=O)O[C@H](/C(C)=C/[C@@H]3CC[C@@H](O)[C@H](OC)C3)[C@H](C)[C@@H](O)CC1=O)[C@H](C)C[C@@H]2OC [Tacrolimus]	–	–	Brain Conc. Ratio mdr1(−/−)/mdr1(+/+) (P-gp (mdr1); mouse, in vivo): 6.0; Liver Conc. Ratio mdr1(−/−)/mdr1(+/+) (P-gp (mdr1); mouse, in vivo): 1.7
CC[C@]1(O)C[C@@H]2CN(CCc3c([nH]c4ccccc34)[C@@](C(=O)OC)(c3cc4c(cc3OC)N(C)[C@H]3[C@@](O)(C(=O)OC)[C@H](OC(C)=O)[C@]5(CC)C=CCN6CC[C@]43[C@@H]65)C2)C1 [Vinblastine]	22.4	1.8	–
